Results published in ChEMBL document CHEMBL6127107, “Oleanolic acid derivatives against drug-resistant bacteria and fungi by multi-targets to avoid drug resistance” (Eur J Med Chem, 2024).
In brackets after ≈: the same amount, converted by molar mass.

Legend:
Type in all cases: functional
Staphylococcus aureus [1] = assay: Antimicrobial activity against Staphylococcus aureus 29
Escherichia coli = assay: Antimicrobial activity against Escherichia coli
Pseudomonas aeruginosa = assay: Antimicrobial activity against Pseudomonas aeruginosa
Staphylococcus aureus [2] = assay: Antimicrobial activity against Staphylococcus aureus 10
Enterococcus faecalis = assay: Antimicrobial activity against vancomycin resistant Enterococcus faecalis ATCC 51299
Staphylococcus aureus [3] = assay: Antimicrobial activity against methicillin-resistant Staphylococcus aureus 011
Staphylococcus aureus [4] = assay: Antimicrobial activity against Staphylococcus aureus 31
Candida albicans = assay: Antimicrobial activity against fluconazole-resistant Candida albicans
Staphylococcus aureus [5] = assay: Antimicrobial activity against methicillin-resistant Staphylococcus aureus 003

Row | Structure (SMILES) | MIC (Staphylococcus aureus [1]) [µg/mL] | MIC (Escherichia coli) [µg/mL] | MIC (Pseudomonas aeruginosa) [µg/mL] | MIC (Staphylococcus aureus [2]) [µg/mL] | MIC (Enterococcus faecalis) [µg/mL] | MIC (Staphylococcus aureus [3]) [µg/mL] | MIC (Staphylococcus aureus [4]) [µg/mL] | MIC (Candida albicans) [µg/mL] | MIC (Staphylococcus aureus [5]) [µg/mL]
1 | CCCCCCCCCCCCC(=O)O[C@H]1CC[C@]2(C)[C@H]3CC=C4[C@@H]5CC(C)(C)CC[C@]5(C(=O)O)CC[C@@]4(C)[C@]3(C)CC[C@H]2C1(C)C | > 64 | > 64 | > 64 | > 64 | > 64 | > 64 | > 64 | > 64 | > 64
2 | C[C@H]1[C@H](C)CC[C@]2(C)CC[C@]3(C)C(=CC[C@@H]4[C@@]5(C)CC[C@@H](O)[C@](C)(C(=O)O)[C@@H]5CC[C@]43C)[C@H]12 [BOSWELLIC ACID] |  |  |  |  | 8 (≈ 17.5 µM) |  |  |  | 8 (≈ 17.5 µM)
3 | C=C1CC[C@]2(C)CC[C@]3(C)[C@H](CC[C@@H]4[C@@]5(C)CC[C@H](OC(C)=O)C(C)(C)[C@@H]5CC[C@]43C)[C@H]2[C@@H]1C [TARAXASTEROL ACETATE] |  |  |  |  | > 512 |  |  |  | > 512
4 | CCNC(=O)[C@]12CCC(C)(C)C[C@H]1C1=CC[C@@H]3[C@@]4(C)CC[C@H](OC(C)=O)C(C)(C)[C@@H]4CC[C@@]3(C)[C@]1(C)CC2 | > 64 | > 64 | > 64 | > 64 | > 64 | > 64 | > 64 | > 64 | > 64
5 | CC1(C)[C@@H](O[C@@H]2O[C@H](C(=O)O)[C@@H](O)[C@H](O[C@@H]3O[C@H](C(=O)O)[C@@H](O)[C@H](O)[C@H]3O)[C@H]2O)CC[C@]2(C)[C@H]3C(=O)C=C4[C@@H]5C[C@@](C)(C(=O)O)CC[C@]5(C)CC[C@@]4(C)[C@]3(C)CC[C@@H]12 [GLYCYRRHIZINIC ACID] |  |  |  |  | > 512 |  |  |  | > 512
6 | CCCCCCCCCOC(=O)[C@]12CCC(C)(C)C[C@H]1C1=CC[C@@H]3[C@@]4(C)CC[C@H](O)C(C)(C)[C@@H]4CC[C@@]3(C)[C@]1(C)CC2 | > 64 | > 64 | > 64 | > 64 | > 64 | > 64 | > 64 | > 64 | > 64
7 | C[C@H]1[C@H](C)CC[C@]2(C(=O)O)CC[C@]3(C)C(=CC[C@@H]4[C@@]5(C)C[C@@H](O)[C@H](O)C(C)(C)[C@@H]5CC[C@]43C)[C@H]12 [COROSOLIC ACID] |  |  |  |  | 32 (≈ 67.7 µM) |  |  |  | 16 (≈ 33.8 µM)
8 | CC(=O)O[C@H]1CC[C@]2(C)[C@H]3CC=C4[C@@H]5CC(C)(C)CC[C@]5(C(=O)N5CCCCC5)CC[C@@]4(C)[C@]3(C)CC[C@H]2C1(C)C | > 64 | > 64 | > 64 | > 64 | > 64 | > 64 | > 64 | > 64 | > 64
9 | COC(=O)[C@@]1(C)CC[C@]2(C(=O)OC3O[C@H](CO)[C@@H](O)[C@H](O)[C@H]3O)CC[C@]3(C)C(=CC[C@@H]4[C@@]5(C)CC[C@H](O[C@@H]6OC[C@@H](O)[C@H](O)[C@H]6O)[C@@](C)(CO)[C@@H]5CC[C@]43C)[C@@H]2C1 (stereo partly specified) |  |  |  |  | > 512 |  |  |  | > 512
10 | CC1(C)CC[C@]2(C(=O)O)CC[C@]3(C)C(=CC[C@@H]4[C@@]5(C)CCC(=O)C(C)(C)[C@@H]5CC[C@]43C)[C@@H]2C1 [OLEANONIC ACID] |  |  |  |  | 512 (≈ 1130 µM) |  |  |  | 256 (≈ 563 µM)
11 | CC(=O)O[C@H]1CC[C@]2(C)[C@H]3CC=C4[C@@H]5CC(C)(C)CC[C@]5(C(=O)NCc5ccoc5)CC[C@@]4(C)[C@]3(C)CC[C@H]2C1(C)C | > 64 | > 64 | > 64 | > 64 | > 64 | > 64 | > 64 | > 64 | > 64
12 | CC1(C)CC[C@]2(C(=O)O)CC[C@]3(C)C(=CC[C@@H]4[C@@]5(C)CC[C@H](OCC(O)CN6CCCCC6)C(C)(C)[C@@H]5CC[C@]43C)[C@@H]2C1 (stereo partly specified) | > 64 | > 64 | > 64 | > 64 | > 64 | > 64 | > 64 | > 64 | > 64
13 | CC(=O)O[C@H]1CC[C@]2(C)[C@H]3CC=C4[C@@H]5CC(C)(C)CC[C@]5(C(=O)NCc5ccc(F)cc5)CC[C@@]4(C)[C@]3(C)CC[C@H]2C1(C)C | > 64 | > 64 | > 64 | > 64 | > 64 | > 64 | > 64 | > 64 | > 64
14 | CC1(C)CC[C@]2(C(=O)O[C@@H]3O[C@H](CO)[C@H](O)[C@H](O)[C@H]3O)CC[C@]3(C)C(=CC[C@@H]4[C@@]5(C)CC[C@H](O[C@@H]6O[C@H](C(=O)O)[C@@H](O)[C@H](O)[C@H]6O)C(C)(C)[C@@H]5CC[C@]43C)[C@@H]2C1 |  |  |  |  | > 512 |  |  |  | > 512
15 | CC1(C)CC[C@]2(C(=O)O)CC[C@]3(C)C(=CC[C@@H]4[C@@]5(C)CC[C@H](OCC(O)CNCc6ccoc6)C(C)(C)[C@@H]5CC[C@]43C)[C@@H]2C1 (stereo partly specified) | > 64 | > 64 | > 64 | > 64 | > 64 | > 64 | > 64 | > 64 | > 64
